ChEMBL document CHEMBL1149774, “Synthesis of N-(5,7-diamino-3-phenyl-quinoxalin-2-yl)-3,4,5-substituted anilines and N-[4[(5,7-diamino-3-phenylquinoxalin-2-yl)amino]benzoyl]-l-glutamic acid diethyl ester: evaluation of in vitro anti-cancer and anti-folate activities” (Eur J Med Chem, 2008)

Assays:
Type in all cases: functional
OVCAR-3 = assay: Growth inhibition of human OVCAR-3 cells after 48 hrs by SRB staining method; settings: OVCAR-3, 48 h; for TGI: read-out: pTGI (converted)
NCI-H322M = assay: Growth inhibition of human NCI-H322M cells after 48 hrs by SRB staining method
HCT-15 = assay: Growth inhibition of human HCT15 cells after 48 hrs by SRB staining method; settings: HCT-15, 48 h; for TGI: read-out: pTGI (converted)
A498 = assay: Growth inhibition of human A498 cells after 48 hrs by SRB staining method; settings: A498, 48 h; for CC50: read-out: pLC50 (the source's name) (converted); for TGI: read-out: pTGI (converted)
LOX IMVI = assay: Growth inhibition of human LOX IMVI cells after 48 hrs by SRB staining method; settings: for TGI: read-out: pTGI (converted)
SN12C = assay: Growth inhibition of human SN12C cells after 48 hrs by SRB staining method; settings: for CC50: read-out: pLC50 (the source's name) (converted); for TGI: read-out: pTGI (converted)
SF-295 = assay: Growth inhibition of human SF295 cells after 48 hrs by SRB staining method; settings: SF-295, 48 h; for TGI: read-out: pTGI (converted)
SK-MEL-2 = assay: Growth inhibition of human SK-MEL-2 cells after 48 hrs by SRB staining method; settings: SK-MEL-2, 48 h; for TGI: read-out: pTGI (converted)
OVCAR-5 = assay: Growth inhibition of human OVCAR5 cells after 48 hrs by SRB staining method; settings: OVCAR-5, 48 h; for TGI: read-out: pTGI (converted)
SW-620 = assay: Growth inhibition of human SW620 cells after 48 hrs by SRB staining method; settings: SW-620, 48 h; for CC50: read-out: pLC50 (the source's name) (converted); for TGI: read-out: pTGI (converted)
MCF7 = assay: Growth inhibition of human MCF7 cells after 48 hrs by SRB staining method; settings: MCF7, 48 h; for CC50: read-out: pLC50 (the source's name) (converted); for TGI: read-out: pTGI (converted)
RPMI-8226 = assay: Growth inhibition of human RPMI8226 cells after 48 hrs by SRB staining method; settings: RPMI-8226, 48 h; for CC50: read-out: pLC50 (the source's name) (converted); for TGI: read-out: pTGI (converted)
NCI-H522 = assay: Growth inhibition of human NCI-H522 cells after 48 hrs by SRB staining method; settings: NCI-H522, 48 h; for TGI: read-out: pTGI (converted)
OVCAR-4 = assay: Growth inhibition of human OVCAR4 cells after 48 hrs by SRB staining method; settings: OVCAR-4, 48 h; for TGI: read-out: pTGI (converted)
PC-3 = assay: Growth inhibition of human PC3 cells after 48 hrs by SRB staining method; settings: PC-3, 48 h; for CC50: read-out: pLC50 (the source's name) (converted); for TGI: read-out: pTGI (converted)
A549 = assay: Growth inhibition of human A549 cells after 48 hrs by SRB staining method; settings: A549, 48 h; for CC50: read-out: pLC50 (the source's name) (converted); for TGI: read-out: pTGI (converted)
MDA-MB-231 = assay: Growth inhibition of human MDA-MB-231 cells after 48 hrs by SRB staining method; settings: MDA-MB-231, 48 h; for CC50: read-out: pLC50 (the source's name) (converted); for TGI: read-out: pTGI (converted)
SR = assay: Growth inhibition of human SR cells after 48 hrs by SRB staining method; settings: for CC50: read-out: pLC50 (the source's name) (converted); for TGI: read-out: pTGI (converted)
KM12 = assay: Growth inhibition of human KM12 cells after 48 hrs by SRB staining method; settings: KM12, 48 h; for TGI: read-out: pTGI (converted)
EKVX = assay: Growth inhibition of human EKVX cells after 48 hrs by SRB staining method; settings: for CC50: read-out: pLC50 (the source's name) (converted); for TGI: read-out: pTGI (converted)
SK-OV-3 = assay: Growth inhibition of human SKOV3 cells after 48 hrs by SRB staining method; settings: SK-OV-3, 48 h; for CC50: read-out: pLC50 (the source's name) (converted); for TGI: read-out: pTGI (converted)
OVCAR-8 = assay: Growth inhibition of human OVCAR8 cells after 48 hrs by SRB staining method; settings: OVCAR-8, 48 h; for CC50: read-out: pLC50 (the source's name) (converted); for TGI: read-out: pTGI (converted)
HCT-116 = assay: Growth inhibition of human HCT116 cells after 48 hrs by SRB staining method; settings: HCT-116, 48 h; for TGI: read-out: pTGI (converted)
786-0 = assay: Growth inhibition of human 786-0 cells after 48 hrs by SRB staining method; settings: 786-0, 48 h; for CC50: read-out: pLC50 (the source's name) (converted); for TGI: read-out: pTGI (converted)
U-251 = assay: Growth inhibition of human U251 cells after 48 hrs by SRB staining method; settings: U-251, 48 h; for TGI: read-out: pTGI (converted)
HOP-62 = assay: Growth inhibition of human HOP62 cells after 48 hrs by SRB staining method; settings: HOP-62, 48 h; for TGI: read-out: pTGI (converted)
SK-MEL-28 = assay: Growth inhibition of human SK-MEL-28 cells after 48 hrs by SRB staining method; settings: SK-MEL-28, 48 h; for CC50: read-out: pLC50 (the source's name) (converted); for TGI: read-out: pTGI (converted)
NCI-H23 = assay: Growth inhibition of human NCI-H23 cells after 48 hrs by SRB staining method; settings: NCI-H23, 48 h; for TGI: read-out: pTGI (converted)
NCI-H460 = assay: Growth inhibition of human NCI-H460 cells after 48 hrs by SRB staining method; settings: NCI-H460, 48 h; for TGI: read-out: pTGI (converted)
UO-31 = assay: Growth inhibition of human UO31 cells after 48 hrs by SRB staining method; settings: UO-31, 48 h; for CC50: read-out: pLC50 (the source's name) (converted); for TGI: read-out: pTGI (converted)
Malme-3M = assay: Growth inhibition of human MALME-3M cells after 48 hrs by SRB staining method; settings: for TGI: read-out: pTGI (converted)
BT-549 = assay: Growth inhibition of human BT549 cells after 48 hrs by SRB staining method; settings: BT-549, 48 h
SK-MEL-5 = assay: Growth inhibition of human SK-MEL-5 cells after 48 hrs by SRB staining method; settings: SK-MEL-5, 48 h; for TGI: read-out: pTGI (converted)

## COc1cc(Nc2nc3cc(N)cc(N)c3nc2-c2ccccc2)cc(OC)c1
OVCAR-3
  GI50: 3.89 µM
  LC50: 100 µM
  TGI: 20 µM
NCI-H322M
  GI50: 13.8 µM
  LC50: > 100 µM
NCI-H322M; read-out: pTGI (converted)
  TGI: 58.9 µM
HCT-15
  GI50: 20 µM
  LC50: > 100 µM
  TGI: > 100 µM
A498
  GI50: 4.9 µM
  CC50: 79.4 µM
  TGI: 22.4 µM
LOX IMVI
  GI50: 15.1 µM
  LC50: > 100 µM
  TGI: 50.1 µM
SN12C
  GI50: 8.71 µM
  CC50: > 100 µM
  TGI: > 100 µM
SF-295
  GI50: 12.6 µM
  LC50: > 100 µM
  TGI: 58.9 µM
SK-MEL-2
  GI50: 12 µM
  LC50: > 100 µM
  TGI: 63.1 µM
OVCAR-5
  GI50: 26.3 µM
  LC50: > 100 µM
  TGI: > 100 µM
SW-620
  GI50: 26.9 µM
  CC50: > 100 µM
  TGI: > 100 µM
MCF7
  GI50: 7.94 µM
  CC50: 85.1 µM
  TGI: 26.9 µM
RPMI-8226
  GI50: 1.26 µM
  CC50: 32.4 µM
  TGI: 10.5 µM
NCI-H522
  GI50: 9.55 µM
  LC50: 85.1 µM
  TGI: 28.8 µM
OVCAR-4
  GI50: 17.8 µM
  LC50: > 100 µM
  TGI: > 100 µM
PC-3
  GI50: 1.95 µM
  CC50: 57.5 µM
  TGI: 11 µM
A549
  GI50: 20 µM
  CC50: > 100 µM
  TGI: > 100 µM
MDA-MB-231
  GI50: 6.46 µM
  CC50: > 100 µM
  TGI: 34.7 µM
SR
  GI50: 5.62 µM
  CC50: > 100 µM
  TGI: > 100 µM
KM12
  GI50: 13.2 µM
  LC50: 72.4 µM
  TGI: 30.9 µM
EKVX
  GI50: 13.2 µM
  CC50: > 100 µM
  TGI: 64.6 µM
SK-OV-3
  GI50: 6.61 µM
  CC50: > 100 µM
  TGI: 39.8 µM
OVCAR-8
  GI50: 6.17 µM
  CC50: > 100 µM
  TGI: 46.8 µM
HCT-116
  GI50: 17 µM
  LC50: > 100 µM
  TGI: 53.7 µM
786-0
  GI50: 17.8 µM
  CC50: > 100 µM
  TGI: 51.3 µM
U-251
  GI50: 22.9 µM
  LC50 (50% lethal concentration): > 100 µM
  TGI: > 100 µM
HOP-62
  GI50: 19.5 µM
  LC50: > 100 µM
  TGI: 53.7 µM
SK-MEL-28
  GI50: 14.8 µM
  CC50: > 100 µM
  TGI: 89.1 µM
NCI-H23
  GI50: 27.5 µM
  LC50: > 100 µM
  TGI: > 100 µM
NCI-H460
  GI50: 7.94 µM
  LC50 (concentration killing 50% of cells): > 100 µM
  TGI: 52.5 µM
UO-31
  GI50: 8.91 µM
  CC50: > 100 µM
  TGI: 44.7 µM
Malme-3M
  GI50: 4.37 µM
  LC50: > 100 µM
  TGI: 24.5 µM
BT-549
  GI50: 4.68 µM
BT-549; read-out: pLC50 (the source's name) (converted)
  CC50: > 100 µM
BT-549; read-out: pTGI (converted)
  TGI: 31.6 µM
SK-MEL-5
  GI50: 10.5 µM
  LC50: 87.1 µM
  TGI: 30.2 µM

## Nc1cc(N)c2nc(-c3ccccc3)c(Nc3ccc(Cl)c(Cl)c3)nc2c1
OVCAR-3
  GI50: 2.95 µM
  LC50: 37.2 µM
  TGI: 10 µM
NCI-H322M
  LC50: 63.1 µM
HCT-15
  GI50: 21.4 µM
  LC50: > 100 µM
  TGI: > 100 µM
A498
  GI50: 12 µM
  CC50: 57.5 µM
  TGI: 26.3 µM
LOX IMVI
  GI50: 4.37 µM
  LC50: > 100 µM
  TGI: > 100 µM
SN12C
  GI50: 12.6 µM
  CC50: 79.4 µM
  TGI: 31.6 µM
SF-295
  GI50: 12.3 µM
  LC50: 63.1 µM
  TGI: 28.2 µM
SK-MEL-2
  GI50: 2.34 µM
  LC50: 69.2 µM
  TGI: 19.1 µM
OVCAR-5
  GI50: 28.2 µM
  LC50: 85.1 µM
  TGI: 49 µM
SW-620
  GI50: 13.2 µM
  CC50: > 100 µM
  TGI: 51.3 µM
MCF7
  GI50: 5.01 µM
  CC50: 75.9 µM
  TGI: 20.9 µM
RPMI-8226
  GI50: 2 µM
  CC50: > 100 µM
  TGI: 4.9 µM
NCI-H522
  GI50: 5.25 µM
  LC50: 69.2 µM
  TGI: 21.9 µM
OVCAR-4
  GI50: 11.2 µM
  LC50: > 100 µM
  TGI: 47.9 µM
PC-3
  GI50: 3.09 µM
  CC50: 89.1 µM
  TGI: 15.1 µM
A549
  GI50: 10.7 µM
  CC50: > 100 µM
  TGI: 34.7 µM
MDA-MB-231
  GI50: 5.75 µM
  CC50: > 100 µM
  TGI: 27.5 µM
SR
  GI50: 2.57 µM
  CC50: > 100 µM
  TGI: 15.5 µM
KM12
  GI50: 5.89 µM
  LC50: 87.1 µM
  TGI: 24.5 µM
EKVX
  GI50: 3.8 µM
  CC50: 47.9 µM
  TGI: 16.2 µM
SK-OV-3
  GI50: 13.8 µM
  CC50: 70.8 µM
  TGI: 31.6 µM
OVCAR-8
  GI50: 5.13 µM
  CC50: > 100 µM
  TGI: 79.4 µM
HCT-116
  GI50: 10.7 µM
  LC50: > 100 µM
  TGI: 52.5 µM
786-0
  GI50: 14.8 µM
  CC50: 93.3 µM
  TGI: 37.2 µM
U-251
  GI50: 4.68 µM
  LC50 (50% lethal concentration): > 100 µM
  TGI: > 100 µM
HOP-62
  GI50: 17.4 µM
  LC50: 81.3 µM
  TGI: 38 µM
SK-MEL-28
  GI50: 16.2 µM
  CC50: > 100 µM
  TGI: 44.7 µM
NCI-H23
  GI50: 19.1 µM
  LC50: > 100 µM
  TGI: 55 µM
NCI-H460
  GI50: 1.58 µM
  LC50 (concentration killing 50% of cells): 56.2 µM
  TGI: 22.9 µM
UO-31
  GI50: 11.2 µM
  CC50: > 100 µM
  TGI: 36.3 µM
Malme-3M
  GI50: 10.2 µM
  LC50: 57.5 µM
  TGI: 24.5 µM
SK-MEL-5
  GI50: 11 µM
  LC50: 58.9 µM
  TGI: 25.7 µM
